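96-well plates; 48 h exposure; 5 concentrations. Endpoints by linear interpolation between flanking doses. Not reached: highest tested concentration assigned. TGI: concentration producing complete growth inhibition.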
What was measured:
Test in all cases: NCI anticancer screen, dose series, 48 h
OVCAR-8 ovarian = system: OVCAR-8 ovarian
SF-539 CNS = system: SF-539 CNS
PC-3 prostate = system: PC-3 prostate
HCC-2998 colon = system: HCC-2998 colon
UO-31 renal = system: UO-31 renal
ACHN renal = system: ACHN renal
KM12 colon = system: KM12 colon
U251 CNS = system: U251 CNS
HOP-62 NSCLC = system: HOP-62 NSCLC
MDA-MB-231 breast = system: MDA-MB-231 breast
NCI/ADR-RES ovarian = system: NCI/ADR-RES ovarian
CAKI-1 renal = system: CAKI-1 renal
T-47D breast = system: T-47D breast
NCI-H226 lung = system: NCI-H226 lung
SK-MEL-2 melanoma = system: SK-MEL-2 melanoma
CCRF-CEM leukemia = system: CCRF-CEM leukemia
HCT-15 colon = system: HCT-15 colon
SNB-19 CNS = system: SNB-19 CNS
SK-MEL-28 melanoma = system: SK-MEL-28 melanoma
RPMI-8226 leukemia = system: RPMI-8226 leukemia

CC(=O)O[C@H]1[C@@H](OC(C)=O)C(C)(C)/C=C/[C@H](C)C(=O)[C@@]2(OC(C)=O)C[C@@](C)(OC(C)=O)[C@H](OC(C)=O)[C@@H]2[C@H]2OC(=O)CC[C@@]2(OC(=O)c2ccccc2)[C@@H]1OCC(C)C
TGI (OVCAR-8 ovarian): > 100 µM | TGI (SF-539 CNS): > 100 µM | TGI (PC-3 prostate): > 100 µM | TGI (HCC-2998 colon): > 100 µM | TGI (UO-31 renal): > 100 µM | TGI (ACHN renal): > 100 µM | TGI (KM12 colon): > 100 µM | TGI (U251 CNS): > 100 µM | TGI (HOP-62 NSCLC): > 100 µM | TGI (MDA-MB-231 breast): > 100 µM | TGI (NCI/ADR-RES ovarian): > 100 µM | TGI (CAKI-1 renal): > 100 µM | TGI (T-47D breast): > 100 µM | TGI (NCI-H226 lung): > 100 µM | TGI (SK-MEL-2 melanoma): > 100 µM | TGI (CCRF-CEM leukemia): > 100 µM | TGI (HCT-15 colon): > 100 µM | TGI (SNB-19 CNS): > 100 µM

CCSc1nc(N)c2c(-c3ccccc3)c3c(nc2n1)CCC3
TGI (OVCAR-8 ovarian): > 100 µM | TGI (SF-539 CNS): 53 µM | TGI (PC-3 prostate): > 100 µM | TGI (SK-MEL-28 melanoma): > 100 µM | TGI (UO-31 renal): 9.02 µM | TGI (ACHN renal): > 100 µM | TGI (KM12 colon): > 100 µM | TGI (U251 CNS): > 100 µM | TGI (HOP-62 NSCLC): > 100 µM | TGI (MDA-MB-231 breast): > 100 µM | TGI (NCI/ADR-RES ovarian): > 100 µM | TGI (CAKI-1 renal): > 100 µM | TGI (T-47D breast): > 100 µM | TGI (RPMI-8226 leukemia): > 100 µM | TGI (CCRF-CEM leukemia): > 100 µM | TGI (HCT-15 colon): > 100 µM | TGI (SNB-19 CNS): > 100 µM

NC1(C(=O)O)CCCC1
TGI (OVCAR-8 ovarian): > 625 µM | TGI (SF-539 CNS): > 625 µM | TGI (SK-MEL-28 melanoma): > 625 µM | TGI (HCC-2998 colon): > 625 µM | TGI (UO-31 renal): > 625 µM | TGI (KM12 colon): > 625 µM | TGI (U251 CNS): > 625 µM | TGI (HOP-62 NSCLC): > 625 µM | TGI (NCI/ADR-RES ovarian): > 625 µM | TGI (CAKI-1 renal): > 625 µM | TGI (NCI-H226 lung): > 625 µM | TGI (RPMI-8226 leukemia): > 625 µM | TGI (SK-MEL-2 melanoma): > 625 µM | TGI (CCRF-CEM leukemia): > 625 µM | TGI (HCT-15 colon): > 625 µM | TGI (SNB-19 CNS): > 99.1 µM

CSCCC(NC(=O)OCc1ccccc1)NC(=O)OCc1ccccc1
TGI (OVCAR-8 ovarian): > 100 µM | TGI (PC-3 prostate): > 100 µM | TGI (SK-MEL-28 melanoma): > 100 µM | TGI (HCC-2998 colon): > 100 µM | TGI (UO-31 renal): > 100 µM | TGI (ACHN renal): > 100 µM | TGI (U251 CNS): > 100 µM | TGI (HOP-62 NSCLC): > 100 µM | TGI (MDA-MB-231 breast): > 100 µM | TGI (NCI/ADR-RES ovarian): > 100 µM | TGI (CAKI-1 renal): > 100 µM | TGI (T-47D breast): > 100 µM | TGI (NCI-H226 lung): > 100 µM | TGI (RPMI-8226 leukemia): > 100 µM | TGI (SK-MEL-2 melanoma): > 100 µM | TGI (HCT-15 colon): > 100 µM | TGI (SNB-19 CNS): > 100 µM
